Test results reported in ChEMBL document CHEMBL1201862, “PubChem BioAssay data set” (2004).
The source made the active and inactive calls.

Legend:
[1] = target: T1, Leucine aminopeptidase (Plasmodium falciparum 3D7, UniProt Q8IL11); test: P. falciparum M17LAP inhibitors, primary screen, biochemical, fluorogenic H-Leu-NHMec substrate, 1536-well (AID 1619); assay type: functional
T1 sequence (Q8IL11 whole entry): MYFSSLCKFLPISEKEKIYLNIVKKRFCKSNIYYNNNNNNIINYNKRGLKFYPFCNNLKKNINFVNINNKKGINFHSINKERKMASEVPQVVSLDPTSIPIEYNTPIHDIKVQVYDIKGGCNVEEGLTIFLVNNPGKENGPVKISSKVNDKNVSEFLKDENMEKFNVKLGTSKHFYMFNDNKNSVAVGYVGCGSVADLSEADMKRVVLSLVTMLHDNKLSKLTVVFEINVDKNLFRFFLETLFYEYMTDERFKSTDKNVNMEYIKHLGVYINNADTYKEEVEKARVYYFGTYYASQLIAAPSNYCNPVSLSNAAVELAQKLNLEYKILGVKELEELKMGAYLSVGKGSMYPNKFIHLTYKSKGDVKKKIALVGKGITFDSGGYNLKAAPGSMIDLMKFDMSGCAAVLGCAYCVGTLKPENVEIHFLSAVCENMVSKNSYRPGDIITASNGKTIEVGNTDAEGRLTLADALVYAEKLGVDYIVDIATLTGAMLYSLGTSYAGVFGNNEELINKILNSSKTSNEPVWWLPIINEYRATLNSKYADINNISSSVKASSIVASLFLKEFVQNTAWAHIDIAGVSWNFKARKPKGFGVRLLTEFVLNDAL

[2] = target: Genome polyprotein (dengue virus type 2, UniProt P29990); test: Dengue-2 NS5 methyltransferase inhibitors, primary screen, biochemical, confirmation dose response (AID 588689); assay type: functional
[3] = target: T2, Corticotropin-releasing factor receptor 2/Corticotropin-releasing factor-binding protein (Homo sapiens, UniProt P24387+Q13324); test: activators of CRF receptor 2 with binding protein – uHTS hits, confirmation (AID 602473); assay type: functional; settings: read-out: EC50_Mean
T2 sequence (Q13324 whole entry): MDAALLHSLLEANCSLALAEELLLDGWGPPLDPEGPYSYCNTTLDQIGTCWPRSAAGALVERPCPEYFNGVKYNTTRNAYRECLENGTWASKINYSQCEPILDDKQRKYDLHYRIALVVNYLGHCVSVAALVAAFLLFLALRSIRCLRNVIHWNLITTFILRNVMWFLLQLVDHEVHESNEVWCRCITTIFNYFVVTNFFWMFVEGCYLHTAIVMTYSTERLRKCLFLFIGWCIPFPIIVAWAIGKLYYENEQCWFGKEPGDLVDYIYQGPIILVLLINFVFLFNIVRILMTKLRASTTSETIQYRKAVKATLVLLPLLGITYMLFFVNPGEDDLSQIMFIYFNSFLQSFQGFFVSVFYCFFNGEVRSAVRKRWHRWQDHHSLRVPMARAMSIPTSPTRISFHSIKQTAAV
T2 sequence (P24387 whole entry): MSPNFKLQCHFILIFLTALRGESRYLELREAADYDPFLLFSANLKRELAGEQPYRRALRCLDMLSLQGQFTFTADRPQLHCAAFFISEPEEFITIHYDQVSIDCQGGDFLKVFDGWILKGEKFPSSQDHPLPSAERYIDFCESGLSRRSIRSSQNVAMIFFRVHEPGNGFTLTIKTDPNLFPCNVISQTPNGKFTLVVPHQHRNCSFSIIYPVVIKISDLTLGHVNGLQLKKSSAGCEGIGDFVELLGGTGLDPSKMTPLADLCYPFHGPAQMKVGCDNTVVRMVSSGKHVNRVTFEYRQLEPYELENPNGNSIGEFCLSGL

[4] = target: fMet-Leu-Phe receptor (Homo sapiens, UniProt P21462); test: FPR ligands, dose response (AID 519); assay type: functional
[5] = MITF Orthogonal Assay: SK-MEL-5 CTG Assay Measured in Cell-Based System Using Plate Reader - 2084-02_Inhibitor_Dose_DryPowder_Activity_Set7.; assay type: functional
[6] = MITF: Counter assay: A375 proliferation Measured in Cell-Based System Using Plate Reader - 2084-03_Inhibitor_Dose_DryPowder_Activity_Set8.; assay type: functional; settings: A-375
[7] = TRPM1 promoter luciferase reporter signal decrease, dose response, MITF inhibitor project, cell-based, SK-MEL-5, dry powder, set 8 (AID 624430); assay type: functional
[8] = BHK-21 cell cytotoxicity, cytotoxicity control for flavivirus guanylyltransferase probe project, secondary screen (AID 624078); assay type: functional
[9] = NIH-3T3 fibroblast cytotoxicity, dose response, cytotoxicity control, cell-based, fluorescence, Alamar Blue, secondary assay (AID 2327); assay type: functional;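 also: NIH-3T3 mouse fibroblasts cultured with fluconazole at 8 µg/mL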
[10] = target: T3, RNA-binding protein pos-1 (Caenorhabditis elegans, UniProt G5EF15); test: inhibitors of POS-1/mex-3 RNA binding, dose response, biochemical, fluorescence polarization (AID 1964);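 also: purified POS-1 fused to maltose binding protein made in E. coli; potency of compounds blocking POS-1 binding to fluorescent RNA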
T3 sequence (G5EF15 whole entry): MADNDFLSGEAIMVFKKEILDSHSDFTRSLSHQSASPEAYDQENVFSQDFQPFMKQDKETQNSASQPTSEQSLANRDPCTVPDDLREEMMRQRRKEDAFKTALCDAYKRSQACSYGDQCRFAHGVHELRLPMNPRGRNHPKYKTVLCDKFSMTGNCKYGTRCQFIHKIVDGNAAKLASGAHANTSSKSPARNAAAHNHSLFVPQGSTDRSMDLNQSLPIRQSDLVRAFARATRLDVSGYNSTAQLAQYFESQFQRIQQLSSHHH

[11] = target: T4, Zinc finger protein mex-5 (Caenorhabditis elegans, UniProt Q9XUB2); test: MEX-5/TCR-2 RNA interaction inhibitors, dose response, biochemical, C. elegans, fluorescence polarization (AID 1960)
T4 sequence (Q9XUB2 whole entry): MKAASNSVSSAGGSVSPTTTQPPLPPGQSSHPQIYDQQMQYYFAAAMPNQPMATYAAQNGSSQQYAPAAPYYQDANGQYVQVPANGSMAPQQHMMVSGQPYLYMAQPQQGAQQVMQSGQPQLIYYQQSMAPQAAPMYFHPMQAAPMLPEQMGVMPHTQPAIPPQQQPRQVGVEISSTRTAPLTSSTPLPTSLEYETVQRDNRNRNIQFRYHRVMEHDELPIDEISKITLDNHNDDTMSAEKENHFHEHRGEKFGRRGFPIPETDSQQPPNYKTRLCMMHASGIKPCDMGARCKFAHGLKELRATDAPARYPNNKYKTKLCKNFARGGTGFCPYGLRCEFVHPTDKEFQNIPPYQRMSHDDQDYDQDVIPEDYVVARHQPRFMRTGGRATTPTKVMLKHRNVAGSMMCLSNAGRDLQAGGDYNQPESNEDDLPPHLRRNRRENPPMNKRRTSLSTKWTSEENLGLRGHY

[12] = C. albicans growth with fluconazole, confirmation, fluorescence, retest (AID 2467); assay type: functional, cell-based
[13] = microbe, parasite or virus in culture; assay type: functional; settings: Mycobacterium tuberculosis
[14] = target: T5, Apoptotic protease-activating factor 1 (Homo sapiens, UniProt O14727); assay type: functional
T5 sequence (O14727 whole entry): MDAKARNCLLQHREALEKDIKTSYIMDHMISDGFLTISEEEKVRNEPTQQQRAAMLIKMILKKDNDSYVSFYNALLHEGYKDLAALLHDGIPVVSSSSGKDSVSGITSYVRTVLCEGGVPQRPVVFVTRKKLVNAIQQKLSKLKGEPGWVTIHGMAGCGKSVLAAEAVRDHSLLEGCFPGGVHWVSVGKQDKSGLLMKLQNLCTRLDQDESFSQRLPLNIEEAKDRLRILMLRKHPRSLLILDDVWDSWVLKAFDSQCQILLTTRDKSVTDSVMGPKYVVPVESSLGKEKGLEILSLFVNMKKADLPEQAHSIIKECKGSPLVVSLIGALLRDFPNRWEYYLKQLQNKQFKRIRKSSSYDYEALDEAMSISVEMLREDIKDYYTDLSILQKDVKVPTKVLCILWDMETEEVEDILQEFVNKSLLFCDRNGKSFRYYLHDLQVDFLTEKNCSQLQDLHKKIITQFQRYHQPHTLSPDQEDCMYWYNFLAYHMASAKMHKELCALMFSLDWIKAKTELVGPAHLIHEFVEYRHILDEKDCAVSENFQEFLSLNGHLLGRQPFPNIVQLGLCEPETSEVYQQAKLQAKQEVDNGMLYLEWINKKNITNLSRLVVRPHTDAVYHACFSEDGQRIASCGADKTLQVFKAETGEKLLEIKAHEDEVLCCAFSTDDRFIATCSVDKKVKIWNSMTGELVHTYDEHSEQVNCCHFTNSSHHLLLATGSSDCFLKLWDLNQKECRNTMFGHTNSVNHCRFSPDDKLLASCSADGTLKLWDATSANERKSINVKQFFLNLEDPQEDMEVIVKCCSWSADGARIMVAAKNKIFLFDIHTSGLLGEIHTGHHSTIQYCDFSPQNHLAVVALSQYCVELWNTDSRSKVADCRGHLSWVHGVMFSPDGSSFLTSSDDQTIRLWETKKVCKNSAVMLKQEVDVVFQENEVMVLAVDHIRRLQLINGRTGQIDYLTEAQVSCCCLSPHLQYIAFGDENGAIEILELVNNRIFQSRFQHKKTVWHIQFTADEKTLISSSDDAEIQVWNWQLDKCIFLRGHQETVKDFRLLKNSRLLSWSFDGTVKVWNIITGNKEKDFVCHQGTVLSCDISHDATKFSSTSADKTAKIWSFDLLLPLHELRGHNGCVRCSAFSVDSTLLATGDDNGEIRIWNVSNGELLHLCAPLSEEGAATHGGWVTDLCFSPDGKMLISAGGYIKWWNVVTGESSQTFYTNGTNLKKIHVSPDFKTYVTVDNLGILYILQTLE

[15] = target: T6, Protein RecA (Mycobacterium tuberculosis, UniProt P9WHJ3); test: Fluorescence Cell-Free Homogeneous Dose Retest to Identify Inhibitors of RecA-Intein Splicing Activity. [Related pubchem assays (depositor defined):AID2097, AID2223, AID489010, AID492950]; assay type: functional
T6 sequence (P9WHJ3 whole entry): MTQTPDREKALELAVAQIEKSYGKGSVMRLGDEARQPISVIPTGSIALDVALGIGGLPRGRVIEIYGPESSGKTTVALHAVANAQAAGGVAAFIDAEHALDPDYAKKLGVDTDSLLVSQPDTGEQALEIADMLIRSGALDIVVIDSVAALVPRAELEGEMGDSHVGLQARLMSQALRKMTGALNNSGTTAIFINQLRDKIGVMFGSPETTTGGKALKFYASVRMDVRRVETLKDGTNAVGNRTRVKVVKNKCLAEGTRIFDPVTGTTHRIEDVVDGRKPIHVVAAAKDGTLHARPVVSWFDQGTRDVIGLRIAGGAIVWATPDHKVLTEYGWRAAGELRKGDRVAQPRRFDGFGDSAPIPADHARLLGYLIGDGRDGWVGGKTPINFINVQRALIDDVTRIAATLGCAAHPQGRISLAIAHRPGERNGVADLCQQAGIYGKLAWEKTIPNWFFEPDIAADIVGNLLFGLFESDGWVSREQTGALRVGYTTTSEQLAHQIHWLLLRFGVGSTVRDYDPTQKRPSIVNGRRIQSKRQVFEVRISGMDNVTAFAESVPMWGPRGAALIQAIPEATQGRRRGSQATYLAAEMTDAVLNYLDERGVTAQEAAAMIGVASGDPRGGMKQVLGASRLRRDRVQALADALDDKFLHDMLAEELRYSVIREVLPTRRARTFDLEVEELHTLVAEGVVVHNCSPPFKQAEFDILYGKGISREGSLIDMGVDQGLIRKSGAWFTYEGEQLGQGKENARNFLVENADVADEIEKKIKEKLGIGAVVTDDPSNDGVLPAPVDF

[16] = target: Dual specificity tyrosine-phosphorylation-regulated kinase 1A (Rattus norvegicus, UniProt Q63470); assay type: biochemical, Homo sapiens
[17] = target: T7, Caspase-6 (Homo sapiens, UniProt P55212); test: human caspase-6 inhibitors, dose response, biochemical, VEID-R110 fluorescence, cherry-pick (AID 720632)
T7 sequence (P55212 whole entry): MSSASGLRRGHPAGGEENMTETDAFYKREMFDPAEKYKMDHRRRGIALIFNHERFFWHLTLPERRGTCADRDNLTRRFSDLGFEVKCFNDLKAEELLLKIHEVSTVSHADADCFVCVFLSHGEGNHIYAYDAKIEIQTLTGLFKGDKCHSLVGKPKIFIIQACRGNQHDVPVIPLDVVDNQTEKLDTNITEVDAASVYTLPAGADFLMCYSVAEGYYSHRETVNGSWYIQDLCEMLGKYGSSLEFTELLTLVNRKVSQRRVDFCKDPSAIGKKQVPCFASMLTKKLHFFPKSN

[18] = target: Caspase-9 (Homo sapiens, UniProt P55211); test: caspase-9 enzyme inhibition, dose response, selectivity assay for caspase-6 inhibitor project, biochemical, fluorescence, plate reader, cherry-picked samples (AID 743293)
[19] = target: Caspase-7 (Homo sapiens, UniProt P55210); test: human caspase-7 inhibitors, dose response, selectivity assay for caspase-6 inhibitor project, biochemical, DEVD-R110 fluorescence, cherry-pick (AID 743295)
[20] = Luminescence Cell-Based Dose Retest to Confirm Inhibitors of Cancer Stem Cells. [Related pubchem assays (depositor defined):AID2717, AID2721]; assay type: functional; settings: Homo sapiens
[21] = non-specific cell cytotoxicity, dose response, cytotoxicity control for PAX8 inhibitor project, plate reader, dry powder samples (AID 743021); assay type: functional, cell-based
[22] = HepG2 cell cytotoxicity, dose response, cytotoxicity control, dry powder samples (AID 720568); assay type: functional, cell-based

Chain of Caspase-7 (P55210 24-198 limits assumed): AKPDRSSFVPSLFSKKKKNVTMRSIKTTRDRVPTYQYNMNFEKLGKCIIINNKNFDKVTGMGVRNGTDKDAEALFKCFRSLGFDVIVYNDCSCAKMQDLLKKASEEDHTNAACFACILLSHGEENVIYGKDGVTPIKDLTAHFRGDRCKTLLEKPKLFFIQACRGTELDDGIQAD
Chain of Caspase-7 (P55210 207-303 limits assumed): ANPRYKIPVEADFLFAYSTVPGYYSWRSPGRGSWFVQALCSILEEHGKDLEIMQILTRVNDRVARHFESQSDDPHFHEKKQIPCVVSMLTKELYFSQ
Chain of Caspase-9 (P55211 1-315 limits assumed): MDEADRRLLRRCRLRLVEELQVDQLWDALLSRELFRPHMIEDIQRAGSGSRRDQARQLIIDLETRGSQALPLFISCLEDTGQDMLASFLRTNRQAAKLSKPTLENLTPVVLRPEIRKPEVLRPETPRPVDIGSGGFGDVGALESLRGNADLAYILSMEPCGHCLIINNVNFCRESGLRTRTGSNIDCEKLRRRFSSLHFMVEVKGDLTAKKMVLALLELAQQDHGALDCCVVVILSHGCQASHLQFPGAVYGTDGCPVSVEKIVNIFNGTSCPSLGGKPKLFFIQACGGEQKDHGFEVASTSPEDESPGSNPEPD
Chain of Caspase-9 (P55211 331-416 limits assumed): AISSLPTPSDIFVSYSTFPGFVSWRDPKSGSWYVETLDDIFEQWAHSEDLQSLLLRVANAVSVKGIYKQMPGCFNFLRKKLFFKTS
Chain of Genome polyprotein (P29990 2492-3391 limits assumed): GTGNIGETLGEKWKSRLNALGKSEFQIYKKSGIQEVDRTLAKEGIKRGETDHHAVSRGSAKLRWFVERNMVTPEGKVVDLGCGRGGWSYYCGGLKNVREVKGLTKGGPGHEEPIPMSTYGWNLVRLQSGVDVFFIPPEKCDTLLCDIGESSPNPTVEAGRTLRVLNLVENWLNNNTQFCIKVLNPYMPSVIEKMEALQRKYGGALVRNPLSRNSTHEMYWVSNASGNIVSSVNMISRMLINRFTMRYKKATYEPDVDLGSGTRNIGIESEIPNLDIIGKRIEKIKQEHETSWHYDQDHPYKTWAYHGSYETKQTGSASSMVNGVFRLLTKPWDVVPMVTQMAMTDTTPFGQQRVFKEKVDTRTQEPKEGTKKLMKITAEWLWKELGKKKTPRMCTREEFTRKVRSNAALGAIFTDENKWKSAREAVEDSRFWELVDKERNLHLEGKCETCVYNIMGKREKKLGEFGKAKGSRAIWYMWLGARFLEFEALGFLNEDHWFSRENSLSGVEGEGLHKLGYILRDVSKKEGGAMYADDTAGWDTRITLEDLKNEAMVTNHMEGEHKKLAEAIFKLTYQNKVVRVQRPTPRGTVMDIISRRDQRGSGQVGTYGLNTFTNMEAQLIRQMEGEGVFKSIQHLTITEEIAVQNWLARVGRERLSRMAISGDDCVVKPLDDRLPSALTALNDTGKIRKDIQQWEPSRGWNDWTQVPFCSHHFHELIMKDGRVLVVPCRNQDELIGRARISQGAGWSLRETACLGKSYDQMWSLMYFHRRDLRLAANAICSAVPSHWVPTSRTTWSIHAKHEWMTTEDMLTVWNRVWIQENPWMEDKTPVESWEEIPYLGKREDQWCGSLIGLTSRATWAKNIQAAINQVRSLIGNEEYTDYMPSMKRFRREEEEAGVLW
Chain of fMet-Leu-Phe receptor (P21462 whole entry): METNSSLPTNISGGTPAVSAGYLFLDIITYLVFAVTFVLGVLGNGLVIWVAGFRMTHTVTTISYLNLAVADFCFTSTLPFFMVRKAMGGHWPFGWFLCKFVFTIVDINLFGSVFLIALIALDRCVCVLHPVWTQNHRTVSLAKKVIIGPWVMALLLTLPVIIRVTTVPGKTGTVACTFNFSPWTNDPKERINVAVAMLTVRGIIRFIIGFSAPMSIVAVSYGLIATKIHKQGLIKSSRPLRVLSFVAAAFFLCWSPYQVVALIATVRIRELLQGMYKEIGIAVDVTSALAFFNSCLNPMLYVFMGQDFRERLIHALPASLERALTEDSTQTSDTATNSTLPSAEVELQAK

With Cc1sc(NC(=O)C2CCCCC2C(=O)O)c(C(N)=O)c1-c1ccc(C(C)(C)C)cc1 (configuration not stated) the IC50 [1] was 11.1 µM (active), the IC50 [2] was 60.1 µM (active) and the EC50 [3] was 5.33 µM (active). The Ki [4] was 41.2 µM (inactive).
In the case of O=C1C=C(Nc2ccc(Cl)c(C(F)(F)F)c2)C(=O)c2ccccc21, the AC50 [5] is reported as 0.754 µM (active), the AC50 [6] is reported as > 70 µM (inactive) and the AC50 [7] is reported as > 70 µM (inactive).
With O=S(=O)(Nc1cc(Sc2nc[nH]n2)c(O)c2ccccc12)c1ccc(F)cc1 the CC50 [8] was 14.3 µM (active).
With CN1CCc2cc3c(c4c2C1Cc1ccccc1-4)OCO3 (configuration not stated) [ROEMERINE] the EC50 [9] was > 150 µM (inactive), the EC50 [10] was 16.8 µM (active) and the EC50 [11] was 21.5 µM (inconclusive). For the same compound, the EC50 [12] was > 38 µM (not active), the CC50 [13] was > 40 µM (active) and the IC50 [14] was 10.2 µM (active). For the same compound, the EC50 [15] was 0.0797 µM (active), the AC50 [16] was 2.54 µM (active) and the AC50 [17] was 3.68 µM (active). The AC50 [18] was > 70 µM (inactive) and the AC50 [19] was 1.51 µM (active).
For Nc1nc(=S)c2ncn([C@@H]3O[C@H](CO)[C@@H](O)[C@H]3O)c2[nH]1 [THIOGUANOSINE], the AC50 [20] was 0.301 µM (active), the AC50 [21] was 2.21 µM (active) and the AC50 [22] was 6.38 µM (active).
